Results: publication PMC8145986, “In Vitro Enzymatic and Kinetic Studies, and In Silico Drug-Receptor Interactions, and Drug-Like Profiling of the 5-Styrylbenzamide Derivatives as Potential Cholinesterase and β-Secretase Inhibitors with Antioxidant Properties” (Antioxidants, 2021)

What was measured:
[1] = Cytotoxicity (MTT assay) on Vero cells; details: monkey, Vero cells (normal monkey kidney cells)
Procedure: The cytotoxicity activity of the compounds was evaluated using the 3-(4,5-dimethylthiazol-2-yl)-2,5-diphenyltetrazolium bromide (MTT) assay following a modification of a method by Mosmann. Normal monkey kidney cells (Vero cells) and adeno-carcinomic human epithelial cells (A549 cells) were maintained in Dulbecco’s modified Eagle’s medium (DMEM, Gibco) supplemented with 10% fetal bovine serum (FBS) and 1% penicillin/streptomycin in culture flasks and incubated at 37 °C in 5% CO2. […] Cells were seeded at 1 × 10^5 cells/well and incubated overnight to allow cell attachment. After 24 h, treatments were administered with different concentrations (0, 2.5, 5, 10, 25, 50, and 100 μM) of the compounds and doxorubicin (positive control). After 24 h of incubation, 20 μL of the MTT solution (5 mg/mL) was added in all the wells, which was followed by 4 h of incubation.

AChE = target: T1, AChE (Homo sapiens, UniProt P22303); assay: Enzyme kinetic study against AChE (Lineweaver-Burk and Dixon plots); assay type: biochemical
T1 construct: purchased BioLegend (via Biocom Africa (Pty) Ltd.)
Procedure: The AChE and BChE enzyme kinetic studies were performed in triplicate in a 96-well plate following a procedure described in our previous study. Varying concentrations of 2a or 3c (0, 2.5, 3.5, and 5 μM) and AChI or BChI (0.1, 0.5, 2.5, and 5 mM) were used for the kinetic assays. The absorbances were measured after every 1 s for 10 s at a wavelength of 412 nm using a microplate spectrophotometer reader. The Lineweaver–Burk plots (plot of the inverse of velocity (1/v) against the inverse of the substrate concentration (1/[S])) were constructed.

[2] = Nitric oxide radical scavenging assay (Griess reaction); details: NO radical scavenging
Procedure: Nitric oxide was generated from sodium nitroprusside and measured by Griess’ reaction following the literature method. The experiment was done in triplicate with ascorbic acid (vitamin C) used as a positive control for the assay. In total, 50 μL of each of the test compounds and the positive control at various concentrations (0.1, 0.5, 1.0, 5.0, and 10.0 μM in methanol) were added to each designated well of the 96 well plate. A total of 50 μL of sodium nitroprusside (10 mM) prepared in saline phosphate buffer (pH = 7.4) was then added to each well and the reaction mixture incubated at room temperature for 3 h. Afterward, 300 μL of the Griess reagent (a mixture of 0.2% N-(1-naphthyl)ethylenediamine dihydrochloride and 2% sulfanilamide in […]) was added to each well and absorbance was read at 546 nm using a Varioskan flash microplate spectrophotometer reader.

T1 sequence (P22303 32-614): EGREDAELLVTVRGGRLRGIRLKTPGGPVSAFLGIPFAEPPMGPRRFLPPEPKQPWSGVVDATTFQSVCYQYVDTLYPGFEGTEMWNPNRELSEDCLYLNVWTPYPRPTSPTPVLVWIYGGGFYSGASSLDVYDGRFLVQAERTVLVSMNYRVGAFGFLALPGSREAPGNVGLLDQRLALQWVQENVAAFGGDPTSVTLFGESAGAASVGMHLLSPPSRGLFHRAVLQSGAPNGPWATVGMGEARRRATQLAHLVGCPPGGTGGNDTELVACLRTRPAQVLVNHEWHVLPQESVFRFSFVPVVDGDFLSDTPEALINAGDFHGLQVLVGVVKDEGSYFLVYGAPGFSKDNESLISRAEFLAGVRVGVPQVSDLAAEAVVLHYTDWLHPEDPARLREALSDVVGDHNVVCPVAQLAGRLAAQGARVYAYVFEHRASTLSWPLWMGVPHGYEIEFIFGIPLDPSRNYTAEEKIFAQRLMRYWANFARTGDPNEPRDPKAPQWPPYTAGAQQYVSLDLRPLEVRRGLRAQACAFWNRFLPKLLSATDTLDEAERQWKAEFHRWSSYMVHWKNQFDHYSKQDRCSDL

For `NC(=O)c1cc(/C=C/c2ccccc2)ccc1N` [Compound 2a, (E)-2-Amino-5-styrylbenzamide], the IC50 at 24 h [1] was 163 ± 0.55 µM, the “mode of inhibition AChE” value (AChE) was “non-competitive” and the Ki (AChE; read-out: Ki (Dixon plot) AChE) was 1.2 µM. For the same compound, the IC50 [2] was 10.3 ± 0.12 µM.
